Values quoted from earlier work as cited in patent publication US20210251944A1, “METHODS FOR TREATING A CANCER RESISTANT TO AT LEAST ONE TYROSINE KINASE INHIBITOR” (Del Mar Pharmaceuticals (BC) Ltd., priority 2012, published 2021).
Where two headings read alike, the source gives them in different places.

Assays:
[1] = cited from earlier work
[2] = target: glycogen synthase kinase-3β (GSK-3β) (Homo sapiens, UniProt P49841); conditions: cited from earlier work
CML = conditions: cited from earlier work; for rate of incomplete cytogenetic responses to imatinib: CML

glycogen synthase kinase-3β (GSK-3β), sequence (P49841 whole entry, species assumed): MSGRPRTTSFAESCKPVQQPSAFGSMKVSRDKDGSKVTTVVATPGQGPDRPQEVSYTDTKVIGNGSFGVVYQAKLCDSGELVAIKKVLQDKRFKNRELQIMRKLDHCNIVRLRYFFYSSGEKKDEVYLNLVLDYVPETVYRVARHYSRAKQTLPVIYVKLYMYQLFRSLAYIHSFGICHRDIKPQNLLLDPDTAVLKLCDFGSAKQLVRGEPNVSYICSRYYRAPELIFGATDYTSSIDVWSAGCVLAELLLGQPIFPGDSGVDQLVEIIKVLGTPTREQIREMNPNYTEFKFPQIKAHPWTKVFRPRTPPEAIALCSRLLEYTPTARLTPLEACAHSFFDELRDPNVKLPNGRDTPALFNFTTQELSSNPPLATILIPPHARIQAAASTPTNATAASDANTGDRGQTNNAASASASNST

## O[C@H]([C@H](O)[C@@H](O)CBr)[C@H](O)CBr [Dibromodulcitol, dibromodulcitol]
[1]
  absorption by the oral route: rapid and fairly complete

## CN1C(=O)/C(=C2/C(=O)Nc3ccccc32)c2ccccc21 [Meisoindigo, meisoindigo]
[2]
  concentration for inhibition of glycogen synthase kinase-3β (GSK-3β): 5 to 50 nM

## Cc1ccc(NC(=O)c2ccc(CN3CCN(C)CC3)cc2)cc1Nc1nccc(-c2cccnc2)n1 [imatinib]
CML; individuals in East Asia
  rate of incomplete cytogenetic responses to imatinib: ~50%
CML; individuals in Europe and North America
  rate of incomplete cytogenetic responses to imatinib: 26%
CML; chronic phase CML, first-line imatinib 400 mg/day, ELN criteria
  overall odds ratio for resistant disease, patients with the BIM deletion polymorphism compared to those without: 2.94
